From US9365540B2, “Benzimidazole derivatives as MCH receptor antagonists” (Takeda Pharmaceutical Company Limited, priority 2012, dated 2016)

Columns and labels:
[1] = molecular target: T1, HERG (Homo sapiens, UniProt Q12809); experiment: HERG inhibitory activity, whole-cell patch clamp; assay type: cell-based; settings: 10 μM test compound; HERG.T.HEK cells; peak tail current
T1 construct: host or cells: HERG.T.HEK (HEK cells, G418 selection)
Source text: Evaluation of HERG Inhibitory Activity
MEM medium, MEM nonessential amino acid solution, sodium pyruvate solution and G418 sulfate solution (Geneticin) were purchased from Invitrogen Corporation (Carlsbad, Calif.). Bovine serum albumin (BSA, Fatty Acid Free) was a product of Wako Pure Chemical Industries, Ltd. (Osaka, Japan). Fetal calf serum (FCS) was a product of Trau Scientific Ltd. (Melbourne, Australia).
As HERG-expressing cell HERG.T.HEK, the cell obtained from Wisconsin ALUMNI Research Foundation was used. HERG.T.HEK was maintained and passaged at 37° C. in the presence of 5% CO2 using an MEM medium containing 10% FCS, 1 mM MEM nonessential amino acid, 1 mM sodium pyruvate and 500 μg/ml Geneticin.
80-90% confluent cells were collected by a trypsin treatment and plated on an IVF dish (Falcon, Franklin Lakes, N.J.). […] A preliminary stimulation was applied and the HERG electric current value (peak tail current) was measured when the electric current waveform was stabilized.
For measurement of the HERG electric current with addition of the test compound, the cells were first perfused with the extracellular fluid and, when the waveform was stabilized, the cells were perfused with an extracellular fluid containing 10 μM of a test compound. When the electric current waveform was stabilized under respective perfuse conditions, the HERG electric current was measured.
The HERG electric current inhibitory rate (%) of the test compound was calculated with the HERG electric current value without addition of the test compound as 100%.

[2] = tested on: male diet-induced obese F344/Jcl rats; experiment: Anorectic effect in male diet-induced obese F344/Jcl rats; assay type: in vivo, rat; settings: Rattus norvegicus, po, 48 h, 5 mg/mL suspension at 2 mL/kg, two administrations, food intake for 2 days vs control group, read-out: Food intake suppression rate (%)
Procedure: Evaluation of Anorectic Effect Using Male Diet-Induced Obese F344/Jcl Rats
Male diet-induced obese F344/Jcl rats (44-50 weeks old) fed with a high-fat diet (D12451: Research Diets) from 5 weeks old were used. From before the start of experiment, the rats were singly housed, given a powder high-fat diet (D12451M: Research Diets), and habituated to oral administration with tap water. The food intake from the evening of the day before the start of experiment to the next morning was measured, and the rats were grouped based on both the food intake and the body weight of the previous day. In the evening of the day of the start of experiment and the next day, 0.5% methylcellulose solution was orally administered to the control group, and 0.5% methylcellulose suspension (5 mg/mL) of the test compound was orally administered to the compound administration group at 2 mL/kg (6 per group for both control group and compound administration group). The food intake for 2 days from the initial administration was measured. The food intake inhibition rate of each compound administration group to the control group was calculated.

T1 sequence (Q12809 whole entry): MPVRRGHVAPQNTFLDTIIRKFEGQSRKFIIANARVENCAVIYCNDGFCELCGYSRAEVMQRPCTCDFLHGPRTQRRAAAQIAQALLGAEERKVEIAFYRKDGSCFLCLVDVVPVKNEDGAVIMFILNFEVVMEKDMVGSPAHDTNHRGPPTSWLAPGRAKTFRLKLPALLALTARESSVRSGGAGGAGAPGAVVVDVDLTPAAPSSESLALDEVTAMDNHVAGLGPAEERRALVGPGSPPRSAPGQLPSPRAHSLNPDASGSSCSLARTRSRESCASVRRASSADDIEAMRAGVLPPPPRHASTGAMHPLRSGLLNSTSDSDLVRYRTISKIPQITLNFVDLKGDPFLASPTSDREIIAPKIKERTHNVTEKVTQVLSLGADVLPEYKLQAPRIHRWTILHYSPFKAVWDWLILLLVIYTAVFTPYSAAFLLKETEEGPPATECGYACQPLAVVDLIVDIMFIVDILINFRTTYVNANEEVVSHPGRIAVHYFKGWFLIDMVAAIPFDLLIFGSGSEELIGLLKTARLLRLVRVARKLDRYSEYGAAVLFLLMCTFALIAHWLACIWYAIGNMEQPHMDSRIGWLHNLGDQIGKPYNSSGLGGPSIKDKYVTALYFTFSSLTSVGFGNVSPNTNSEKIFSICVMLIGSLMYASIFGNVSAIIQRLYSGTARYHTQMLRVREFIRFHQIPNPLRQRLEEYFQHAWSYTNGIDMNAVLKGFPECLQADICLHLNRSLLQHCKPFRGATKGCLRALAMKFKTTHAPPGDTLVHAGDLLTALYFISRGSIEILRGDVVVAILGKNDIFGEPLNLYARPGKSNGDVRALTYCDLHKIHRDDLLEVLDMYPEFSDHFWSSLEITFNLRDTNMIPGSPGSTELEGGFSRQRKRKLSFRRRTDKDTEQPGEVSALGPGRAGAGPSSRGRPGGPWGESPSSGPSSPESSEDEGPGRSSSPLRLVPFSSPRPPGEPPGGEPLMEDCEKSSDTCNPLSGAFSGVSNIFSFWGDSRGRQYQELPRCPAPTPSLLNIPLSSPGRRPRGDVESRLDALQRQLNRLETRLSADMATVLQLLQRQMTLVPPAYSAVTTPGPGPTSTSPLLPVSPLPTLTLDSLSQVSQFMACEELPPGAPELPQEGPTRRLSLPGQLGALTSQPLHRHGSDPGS

| SMILES | HERG inhibitory action (%) [1] [%] | inhibition in vivo at 5000 µg/mL, 10 mg/kg [2] [%] |
| --- | --- | --- |
| Cn1c(C2CC2)nc2ccc(-n3ccc(OCc4ccc(F)cc4)cc3=O)cc21 [Example 2, 1-(2-Cyclopropyl-1-methyl-1H-benzimidazol-6-yl)-4-((4-fluorobenzyl)oxy)pyridin-2(1H)-one] | 27.3 | 27.8 |
| CCc1nc2ccc(-n3ccc(OCc4ccc(F)cc4)cc3=O)cc2n1C [Example 63, 1-(2-Ethyl-1-methyl-1H-benzimidazol-6-yl)-4-((4-fluorobenzyl)oxy)pyridin-2(1H)-one] | 23.0 | 45.5 |
| Cc1nc2ccc(-n3ccc(OCc4ccc(F)cc4)cc3=O)cc2n1C [Example 254, 1-(1,2-Dimethyl-1H-benzimidazol-6-yl)-4-((4-fluorobenzyl)oxy)pyridin-2(1H)-one] | 26.4 | 38.7 |
